Measured values from publication PMC8175350, “Drug repurposing screens identify chemical entities for the development of COVID-19 interventions” (Nature Communications, 2021).
pEC50: −log10 of the molar value. Counter-ions that a name gives are not always drawn. Like-named read-outs stand apart in the source and are kept apart here.

Key:
SARS-CoV-2 [1] = assay: microbe, parasite or virus in culture; assay type: cell-based
[2] = Uninfected HeLa-ACE2 24 h live/dead cytotoxicity counter screen; assay type: cell-based, human; settings: human, uninfected HeLa-ACE2 cells
HeLa-ACE2 cells [3] = assay: as above; assay type: cell-based, human
SARS-CoV-2 [4] = assay: microbe, parasite or virus in culture; assay type: cell-based; settings: for Emax: Severe acute respiratory syndrome coronavirus 2, Calu-3, 48 h, read-out: Calu-3 CoV-2 Sinf Average
SARS-CoV-2 [5] = assay: microbe, parasite or virus in culture; assay type: cell-based; settings: for Emax: Severe acute respiratory syndrome coronavirus 2, HeLa-ACE2, 10 h, read-out: HeLa-ACE2 TOA CoV-2 Sinf Average; for pEC50: read-out: HeLa-ACE2 TOA CoV-2 EC50 GeoMean
SARS-CoV-2 [6] = assay type: cell-based; settings: combination with remdesivir, synergy score δ
HeLa-ACE2 cells [7] = assay: Total cell count in the HeLa-ACE2 TOA assay; assay type: cell-based; settings: Homo sapiens; for Emax: HeLa-ACE2, 10 h, curve plateau at infinite concentration, read-out: HeLa-ACE2 TOA cell count Sinf Average; for pEC50: HeLa-ACE2, read-out: HeLa-ACE2 TOA cell count EC50 GeoMean
From the text: Supplement 41467_2021_23328_MOESM3_ESM.xlsx, sheet "Table S1" | column: HeLa-ACE2 TOA cell count

HeLa-ACE2 cells [8] = assay: cells; settings: Homo sapiens; for Emax: HeLa-ACE2, 24 h, read-out: HeLa-ACE2 cell count Sinf Average; for pEC50: HeLa-ACE2, read-out: HeLa-ACE2 cell count EC50 GeoMean
Calu-3 cells [9] = assay: cells; settings: Homo sapiens; for Emax: Calu-3, 48 h, read-out: Calu-3 cell count Sinf Average; for pEC50: Calu-3, read-out: Calu-3 cell count EC50 GeoMean
in vitro = settings: human
HepG2 [10] = assay: HepG2 72 h CellTiter-Glo cytotoxicity; settings: 72 h
HEK293T [11] = assay: HEK293T 72 h CellTiter-Glo cytotoxicity; settings: 72 h
Calu-3 cells [12] = assay: Uninfected Calu-3 48 h Cell-Titer Glo cytotoxicity counter screen
[13] = HepG2 72 h CellTiter-Glo cytotoxicity; settings: human, HepG2 cells
[14] = HEK293T 72 h CellTiter-Glo cytotoxicity; settings: human, HEK293T cells
[15] = Uninfected Calu-3 48 h Cell-Titer Glo cytotoxicity counter screen; settings: human, uninfected Calu-3 cells
Calu-3 cells [16] = settings: for Calu-3 uninfected cytotoxicity Sinf Average: human
HepG2 [17] = settings: human
HEK293T [18] = settings: human
[19] = Severe acute respiratory syndrome coronavirus 2, HeLa-ACE2, 24 h, curve plateau at infinite concentration; read-out: HeLa-ACE2 CoV-2 Sinf Average
[20] = Severe acute respiratory syndrome coronavirus 2, HeLa-ACE2, detail column; read-out: HeLa-ACE2 CoV-2 EC50 GeoMean
[21] = read-out: HeLa-ACE2 uninfected cytotoxicity CC50 GeoMean
[22] = curve plateau at infinite concentration
[23] = Severe acute respiratory syndrome coronavirus 2, Calu-3, detail column, read-out: Calu-3 CoV-2 EC50 GeoMean
[24] = Severe acute respiratory syndrome coronavirus 2, HeLa-ACE2
[25] = Calu-3 uninfected cytotoxicity CC50 GeoMean

SMILES	Emax (SARS-CoV-2 [1]; [19])	pEC50 (SARS-CoV-2 [1]; [20])	CC50 at 24 h [2, 21]	HeLa-ACE2 uninfected cytotoxicity Sinf Average (HeLa-ACE2 cells [3]; [22])	Emax (SARS-CoV-2 [4]; [22])	pEC50 (SARS-CoV-2 [4]; [23])	Emax (SARS-CoV-2 [5]; [22])	pEC50 (SARS-CoV-2 [5]; [24])	Emax (HeLa-ACE2 cells [7])	pEC50 (HeLa-ACE2 cells [7])	Emax (HeLa-ACE2 cells [8])	pEC50 (HeLa-ACE2 cells [8])	Emax (Calu-3 cells [9])	pEC50 (Calu-3 cells [9])	CC50 (in vitro; [25])	HepG2 72-hour cytotoxicity Sinf Average (HepG2 [10])	HEK293T 72-hour cytotoxicty Sinf Average (HEK293T [11])	Calu-3 uninfected cytotoxicity Sinf Average (Calu-3 cells [12]; [22])	CC50 at 72 h [14]	further results
C=CC(=O)Nc1cc(Nc2nccc(-c3cn(C)c4ccccc34)n2)c(OC)cc1N(C)CCN(C)C [AZD-9291/Osimertinib]	100%	6.02	> 18.1 µM	-100%	100%	< 5.80	100%	< 5.11	-100%	< 5.02	98%	< 5.37	-100%	< 5.00	1.69 µM	-107%	-103%	-89%		HeLa-ACE2 synergy score with remdesivi [δ] (SARS-CoV-2 [6]): -0.722
CN1CC2c3ccccc3Oc3ccc(Cl)cc3C2C1 (stereo not drawn) [Asenapine maleate]	97%			-100%	100%		100%									-100%	-100%	-100%	23.3 µM	CC50 at 24 h ([2]; detail block, read-out: HeLa-ACE2 uninfected cytotoxicity CC50 GeoMean): > 35.6 µM; CC50 at 72 h [13]: 19.9 µM; CC50 at 48 h [15]: > 29.9 µM
C[C@H]1O[C@@H](O[C@H]2[C@@H](O)C[C@H](O[C@H]3[C@@H](O)C[C@H](O[C@H]4CC[C@@]5(C)[C@H](CC[C@@H]6[C@@H]5C[C@@H](O)[C@]5(C)[C@@H](C7=CC(=O)OC7)CC[C@]65O)C4)O[C@@H]3C)O[C@@H]2C)C[C@H](O)[C@@H]1O [Digoxin]	100%		0.12 µM	-98%	83%		89%			< 5.02	101%	6.49	-100%	< 5.00	> 5.04 µM					pEC50 (SARS-CoV-2 [1]; Severe acute respiratory syndrome coronavirus 2, HeLa-ACE2; read-out: HeLa-ACE2 CoV-2 EC50 GeoMean): 6.78; pEC50 (SARS-CoV-2 [4]; Severe acute respiratory syndrome coronavirus 2, Calu-3, read-out: Calu-3 CoV-2 EC50 GeoMean): 6.77; pEC50 (SARS-CoV-2 [5]; Severe acute respiratory syndrome coronavirus 2, HeLa-ACE2, detail column): 6.10; Calu-3 uninfected cytotoxicity Sinf Average (Calu-3 cells [16]): -38%; HepG2 72-hour cytotoxicity Sinf Average (HepG2 [17]): -102%; HEK293T 72-hour cytotoxicty Sinf Average (HEK293T [18]): -101%
Cc1ccc(NC(=O)c2ccc(CN3CCN(C)CC3)cc2)cc1Nc1nccc(-c2cccnc2)n1 [Imatinib mesylate]													100%			-100%	-100%		15.2 µM	Emax (SARS-CoV-2 [1]; Severe acute respiratory syndrome coronavirus 2, HeLa-ACE2, 24 h; read-out: HeLa-ACE2 CoV-2 Sinf Average): 100%; Emax (SARS-CoV-2 [4]): 100%; CC50 at 72 h [13]: 12.9 µM; CC50 at 48 h [15, 25]: > 29.9 µM; Calu-3 uninfected cytotoxicity Sinf Average (Calu-3 cells [12]; human, uninfected Calu-3 cells, 48 h): -100%
Nc1ncnc2c1nc(Cl)n2[C@@H]1O[C@H](CO)[C@@H](O)[C@H]1O [8-Chloroadenosine]	98%		> 11.9 µM	-87%	96%	5.31	98%	5.97	100%	< 5.02		< 5.02	99%	< 5.00						pEC50 (SARS-CoV-2 [1]; Severe acute respiratory syndrome coronavirus 2, HeLa-ACE2, reconfirmed hits; read-out: HeLa-ACE2 SARS-CoV-2 EC50): 6.03; CC50 at 24 h ([2]; reconfirmed hits, read-out: HeLa-ACE2 Uninf. cells CC50): > 11.9 µM; pEC50 (SARS-CoV-2 [4]; Severe acute respiratory syndrome coronavirus 2, Calu-3, reconfirmed hits, read-out: Calu-3 SARS-CoV-2 EC50): 5.31; uninfected Calu-3 CC50 (Calu-3 cells [16]): > 27.747 ×÷ 1.135 (n=3) μM; Calu-3 uninfected cytotoxicity Sinf Average (Calu-3 cells [16]; 48 h): -92%; HepG2 72-hour cytotoxicity Sinf Average (HepG2 [17]; 72 h): -69%; HEK293T 72-hour cytotoxicty Sinf Average (HEK293T [18]; 72 h): -98%; CC50 at 48 h (in vitro; Calu-3 Uninf. cells CC50 (µM)): > 27.8 µM; CC50 at 48 h (in vitro; [25]): > 27.7 µM
CCCCc1oc2ccccc2c1C(=O)c1cc(I)c(OCCN(CC)CC)c(I)c1 [Amiodarone]											100%		100%			-100%	-100%		10.9 µM	Emax (SARS-CoV-2 [1]; Severe acute respiratory syndrome coronavirus 2, HeLa-ACE2, 24 h, read-out: HeLa-ACE2 CoV-2 Sinf Average): 96%; HeLa-ACE2 uninfected cytotoxicity Sinf Average (HeLa-ACE2 cells [3]; human, uninfected HeLa-ACE2 cells, 24 h): -101%; Emax (SARS-CoV-2 [4]): 100%; Emax (SARS-CoV-2 [5]): 100%
COc1ccc2c(c1)[C@]1(C[C@H]1c1ccc3c(/C=C/c4ccc(CN5C[C@@H](C)O[C@@H](C)C5)cc4)n[nH]c3c1)C(=O)N2 [CFI-400945]	100%	< 5.15	7.18 µM	-100%	100%	5.47	100%	5.34	100%	< 5.02	53%	< 6.93	100%	5.32						uninfected Calu-3 CC50 (Calu-3 cells [16]): > 19.756 ×÷ 1.816 (n=3) μM; Calu-3 uninfected cytotoxicity Sinf Average (Calu-3 cells [16]; 48 h): -98%; HepG2 72-hour cytotoxicity Sinf Average (HepG2 [17]; 72 h): -100%; HEK293T 72-hour cytotoxicty Sinf Average (HEK293T [18]; 72 h): -95%; CC50 at 48 h (in vitro; [25]): > 19.8 µM
CCC(CC)COC(=O)[C@H](C)NP(=O)(OC[C@H]1O[C@@](C#N)(c2ccc3c(N)ncnn23)[C@H](O)[C@@H]1O)Oc1ccccc1 (stereo partly drawn) [Remdesivir - control]	100%	6.91	> 9.67 µM	-98%	100%	6.35	101%	6.11	100%	< 5.62	-42%	< 5.92	101%	6.27	> 30 µM	-100%	-95%	-100%		
